Measurements published in patent US11331337B2, “Heparin and heparan sulphate oligosaccharides” (Agency for Science, Technology and Research, priority 2017, dated 2022).

Experiments:
BMP-2 = biological target: T1, BMP-2 (Homo sapiens, UniProt P12643); experiment: Surface plasmon resonance BMP-2 competitive binding assay; details: 10 μg/mL pre-incubated with BMP-2 25 nM, applied to heparin-coated SPR chip
T1 construct: purchased R&D Systems Inc. (U.S.A.)
T1 sequence (P12643 283-396): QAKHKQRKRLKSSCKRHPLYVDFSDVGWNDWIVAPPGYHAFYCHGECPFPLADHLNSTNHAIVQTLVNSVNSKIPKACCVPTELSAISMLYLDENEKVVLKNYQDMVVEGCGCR
Experimental: Briefly, 20 mg heparin was biotinylated at free amine groups using 8.6 μM NHS-biotin in dimethyl sulfoxide, after which excess unreacted NHS-biotin was removed by passing the sample through two 7 kDa molecular weight cut-off Zeba spin desalting columns. […] Heparin oligosaccharides were used at a concentration of 10 μg/mL in HBS-EP 0.1% buffer (HBS-EP with 0.1% (v/v) Tween-20). […] The response was measured as a function of time at 25° C. R.U.s for the heparin surface were determined by subtracting the R.U. of the control (uncoated) flow channel from those of the heparin-biotin-coated flow channel. Representative sensorgrams from all competitive binding experiments may be found in supplementary information (FIG. 1). […] Data constitutes the mean±S.D. of three independent experiments.

C2C12 cells = experiment: Alkaline phosphatase (ALP) activity assay in C2C12 cells; format: cell-based, murine; details: with BMP-2 100 ng/mL, 5 μg/mL, 3 days
Experimental: C2C12 cells were maintained as described above and seeded at 2×10^4 cells/cm2 in tissue culture treated 24-well plates. The cells were cultured in treatment media for 3 days, after which total protein was extracted and ALP activity was determined. Briefly, cells were washed with PBS and total protein extracted with RIPA buffer containing a protease inhibitor cocktail. Total protein concentration was determined using the BCA assay, then 7.5 μg of total protein per condition was combined with p-nitrophenylphosphate (Thermo-Fisher). […] Data represents mean±S.D. of three independent experiments.

dextran sulfate
percentage of BMP-2 sequestered in solution (reduction in response units vs. BMP-2 alone) (BMP-2): able to bind BMP-2 with high affinity
BMP-2-induced ALP activity (C2C12 cells): inhibited BMP-2 bioactivity in vitro
